Assay results taken from patent US9018197B2, “Tetradecahydro-1H-cyclopenta[a]phenanthrene compounds, compositions, and related methods of use” (Suzhou Neupharma Co. Ltd., priority 2010, dated 2015).

How the values were obtained:
Bcap-37 cells = assay: Inhibition of cell growth in tumor cells, MTT assay, Bcap-37 cells; type: cell-based; details: Homo sapiens, Bcap37, 72 h compound exposure
Protocol: (§1) Inhibition of cell growth by compounds was measured using MTT assay (Mosmann, T., Journal of Immunological Methods, 1983, 65, 55-63). Tumor cell lines were purchased from ATCC (American Type Culture Collection, Manassas, Va.). All cell lines were maintained in RPMI 1640 (Hyclone) supplemented with 10% fetal bovine serum (FBS, Hyclone), glutamine (2 mM, Hyclone), and antibiotics (penicillin 100 U/mL and streptomycin 50 μg/mL) at 37° C. in a humidified atmosphere of 5% CO2 in air. Taxol (positive control, Sigma) and compounds were dissolved in DMSO (Sigma), and the final concentration of DMSO in the medium was 1%. Tumor cells were plated in 96-well plates at densities from 4000 cells/well of a 96-well plate and allowed to adhere/grow for 24 h. They were then treated with various concentrations of drug for 72 h. 3-(4,5-Dimethylthiazol-2-yl)-2,5-diphenyltetrazolium bromide (MTT, Sigma) was used to determine the number of viable cells at the time of compound addition and the number of cells remaining after 72 h compound exposure. The number of cells remaining after 72 h was compared to the number of viable cells at the time of compound addition by measuring the absorbance at 570 nm, allowing for the calculation of growth inhibition.
(§2) All concentrations of compounds were tested in triplicate and controls were averaged over 4 wells. IC50 was calculated by plotting the concentration of compound vs the percentage of inhibition in treated wells using GraphPad Prism 5.

A549 cells = assay: Inhibition of cell growth in tumor cells, MTT assay, A549 cells; type: cell-based; details: Homo sapiens, 72 h compound exposure
Protocol: as §1, §2

Row | SMILES | IC50 (Bcap-37 cells) | IC50 (A549 cells)
1 | C[C@]12CC[C@H](OC(=O)NCCN3CCOCC3)C[C@H]1CC[C@H]1C3=CC[C@H](c4ccc(=O)oc4)[C@@]3(C)CC[C@@H]12 [(3S,5R,8R,9S,10S,13R,17S)-10,13-dimethyl-17-(2-oxo-2H-pyran-5-yl)-2,3,4,5,6,7,8,9,10,11,12,13,16,17-tetradecahydro-1H-cyclopenta[a]phenanthren-3-yl 2-morpholinoethylcarbamate] | 0.192 µM | 0.0548 µM
2 | C[C@]12CC[C@H](OC(=O)NCCN3CCCC3)C[C@H]1CC[C@H]1C3=CC[C@H](c4ccc(=O)oc4)[C@@]3(C)CC[C@@H]12 [(3S,5R,8R,9S,10S,13R,17S)-10,13-dimethyl-17-(2-oxo-2H-pyran-5-yl)-2,3,4,5,6,7,8,9,10,11,12,13,16,17-tetradecahydro-1H-cyclopenta[a]phenanthren-3-yl 2-(pyrrolidin-1-yl)ethylcarbamate] | 0.168 µM | 0.217 µM
3 | CC(C)[C@@H](N)C(=O)O[C@H]1CC[C@@]2(C)[C@H](CC[C@H]3C4=CC[C@H](c5ccc(=O)oc5)[C@@]4(C)CC[C@@H]32)C1 [(R)-((3S,5R,8R,9S,10S,13R,17S)-10,13-dimethyl-17-(2-oxo-2H-pyran-5-yl)-2,3,4,5,6,7,8,9,10,11,12,13,16,17-tetradecahydro-1H-cyclopenta[a]phenanthren-3-yl) 2-amino-3-methylbutanoate] | 0.155 µM | 0.171 µM
4 | CC(C)C[C@@H](N)C(=O)O[C@H]1CC[C@@]2(C)[C@H](CC[C@H]3C4=CC[C@H](c5ccc(=O)oc5)[C@@]4(C)CC[C@@H]32)C1 [(R)-((3S,5R,8R,9S,10S,13R,17S)-10,13-dimethyl-17-(2-oxo-2H-pyran-5-yl)-2,3,4,5,6,7,8,9,10,11,12,13,16,17-tetradecahydro-1H-cyclopenta[a]phenanthren-3-yl) 2-amino-4-methylpentanoate] | 0.376 µM | 
5 | C[C@]12CC[C@H](OC(=O)N3CCNCC3)C[C@H]1CC[C@H]1C3=CC[C@H](c4ccc(=O)oc4)[C@@]3(C)CC[C@@H]12 [(3S,5R,8R,9S,10S,13R,17S)-10,13-dimethyl-17-(2-oxo-2H-pyran-5-yl)-2,3,4,5,6,7,8,9,10,11,12,13,16,17-tetradecahydro-1H-cyclopenta[a]phenanthren-3-ylpiperazine-1-carboxylate] | 0.137 µM | 0.0902 µM
6 | CC(C)C[C@H](N)C(=O)O[C@H]1CC[C@@]2(C)[C@H](CC[C@H]3C4=CC[C@H](c5ccc(=O)oc5)[C@@]4(C)CC[C@@H]32)C1 [(S)-((3S,5R,8R,9S,10S,13R,17S)-10,13-dimethyl-17-(2-oxo-2H-pyran-5-yl)-2,3,4,5,6,7,8,9,10,11,12,13,16,17-tetradecahydro-1H-cyclopenta[a]phenanthren-3-yl) 2-amino-4-methylpentanoate] |  | 0.229 µM
7 | C[C@@H](N)C(=O)O[C@H]1CC[C@@]2(C)[C@H](CC[C@H]3C4=CC[C@H](c5ccc(=O)oc5)[C@@]4(C)CC[C@@H]32)C1 [(R)-((3S,5R,8R,9S,10S,13R,17S)-10,13-dimethyl-17-(2-oxo-2H-pyran-5-yl)-2,3,4,5,6,7,8,9,10,11,12,13,16,17-tetradecahydro-1H-cyclopenta[a]phenanthren-3-yl) 2-aminopropanoate] | 0.161 µM | 0.106 µM
8 | CC(C)[C@H](N)C(=O)O[C@H]1CC[C@@]2(C)[C@H](CC[C@H]3C4=CC[C@H](c5ccc(=O)oc5)[C@@]4(C)CC[C@@H]32)C1 [(S)-((3S,5R,8R,9S,10S,13R,17S)-10,13-dimethyl-17-(2-oxo-2H-pyran-5-yl)-2,3,4,5,6,7,8,9,10,11,12,13,16,17-tetradecahydro-1H-cyclopenta[a]phenanthren-3-yl) 2-amino-3-methylbutanoate] | 0.444 µM | 
9 | C[C@H](N)C(=O)O[C@H]1CC[C@@]2(C)[C@H](CC[C@H]3C4=CC[C@H](c5ccc(=O)oc5)[C@@]4(C)CC[C@@H]32)C1 [(S)-((3S,5R,8R,9S,10S,13R,17S)-10,13-dimethyl-17-(2-oxo-2H-pyran-5-yl)-2,3,4,5,6,7,8,9,10,11,12,13,16,17-tetradecahydro-1H-cyclopenta[a]phenanthren-3-yl) 2-aminopropanoate] |  | 0.113 µM
